The test has as its target recombinant human cathepsin C (Homo sapiens, UniProt P53634). Briefly: Recombinant Cathepsin C in vitro assay (cleavage of fluorogenic substrate H-Ser-Tyr-AMC). Type of test: biochemical. The following applies: average of two experiments; one hour preincubation, pH 5.5, room temperature; read-out: concentration giving 50% cathepsin C inhibition. How it is done: B. Recombinant Cathepsin C In Vitro Assay:
The activity of recombinant human cathepsin C was measured by the cleavage of a fluorogenic substrate, H-Ser-Tyr-AMC. Briefly, 24 pM cathepsin C was incubated with test compound (e.g. inhibitor) in a buffer consisting of 50 mM sodium acetate, 30 mM sodium chloride, 1 mM CHAPS, 1 mM dithiothreitol, 1 mM EDTA, pH 5.5 at room temperature for one hour. After one hour of incubating test compound with cathepsin C, the activity assay was initiated by the addition of an equal volume of 0.010 mM H-Ser-Tyr-AMC in the same buffer. After one hour, the activity assay was stopped by the addition of ⅕ volume of 100 μM E-64. The reaction product was measured on a fluorescence reader set at an excitation wavelength of 360 nm and emission wavelength of 460 nm and equipped with a 400 nm dichroic mirror.

This passage reports IC50 results from patent US8841463B2, “Cathepsin C inhibitors” (GlaxoSmithKline Intellectual Property Development Limited, priority 2011, dated 2014).

Where a name gives a salt, the structure may show the parent alone.

Sequence of recombinant human cathepsin C (P53634 25-463): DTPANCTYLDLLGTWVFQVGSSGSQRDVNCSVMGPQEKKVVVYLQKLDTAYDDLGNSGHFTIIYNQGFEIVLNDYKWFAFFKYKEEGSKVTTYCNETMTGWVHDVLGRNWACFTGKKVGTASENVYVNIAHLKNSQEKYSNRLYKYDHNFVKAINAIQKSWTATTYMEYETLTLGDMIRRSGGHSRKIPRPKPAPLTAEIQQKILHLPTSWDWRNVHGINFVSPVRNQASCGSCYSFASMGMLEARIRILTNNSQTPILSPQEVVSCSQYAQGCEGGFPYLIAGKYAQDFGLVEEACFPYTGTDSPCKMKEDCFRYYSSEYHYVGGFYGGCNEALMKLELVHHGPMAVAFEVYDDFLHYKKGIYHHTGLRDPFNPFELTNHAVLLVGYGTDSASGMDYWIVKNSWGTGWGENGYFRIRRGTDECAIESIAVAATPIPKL

As for `CC[C@@H](/C=C/C(=O)N1CCc2ccccc21)NC(=O)C1(N)CCOCC1` [Example 1, 4-amino-N-[(1S,2E)-4-(2,3-dihydro-1H-indol-1-yl)-1-ethyl-4-oxo-2-buten-1-yl]tetrahydro-2H-pyran-4-carboxamide hydrochloride], the IC50 is < 1 nM.

As for `CC(C)C[C@@H](/C=C/C(=O)N1CCc2ccccc21)NC(=O)C1(N)CCOCC1` [Example 2, 4-amino-N-[(1S,2E)-4-(2,3-dihydro-1H-indol-1-yl)-1-(2-methylpropyl)-4-oxo-2-buten-1-yl]tetrahydro-2H-pyran-4-carboxamide hydrochloride], the IC50 is < 1 nM.
